Literature values, collected in article PMC9569640, “Structural Insights into the Binding Propensity of Human SHIP2 SH2 to Oncogenic CagA Isoforms from Helicobacter pylori” (International Journal of Molecular Sciences, 2022).

Biological target: SHIP2-SH2
Settings: 6-mer phosphopeptides (-2 to +3), both with Leu at pY+3; cited from earlier work
Description: When the natural phosphopeptides interacting with SHIP2-SH2 were ranked according to their affinities to SHIP2-SH2, it was seen that the affinity was related to the residue type at the pY+3 position (Figure 6F). The ligands showing high and moderate affinities have Leu (L) or Ile (I) residues at this site, while ligands with a low affinity have Val (V) at this site. These indicate that SHIP2-SH2 may have a preference for the hydrophobic side chain of the residue at the pY+3 site of its Tyr-phosphorylated ligand.

In the case of “GGpYMTL [FcgR2A ITAM, 6-mer FcgR2A ITAM phosphopeptide (−2 to +3) of a previous SPR study]”, the “KD for SHIP2-SH2 by SPR (comparison in words)” value is given as “comparable KD values”.

For “ITpYSLL [6-mer FcgR2B ITIM, 6-mer FcgR2B ITIM phosphopeptide (-2 to +3) of a previous SPR study]”, the “KD for SHIP2-SH2 by SPR (comparison in words)” value is listed as “comparable KD values”.
